The values that follow come from US11034650B2, “Compounds useful for treating a Mannheimia haemolytica or Histophilus somni infection” (Intervet Inc., priority 2016, dated 2021).

Converted amounts (≈) assume the structure as drawn.

Common to all, as to assay type: cell-based
Test [1] concerns Mannheimia haemolytica MH 6357 (M7/2, reference strain, cattle infection strain). The test can be described thus: MIC, broth-microdilution (CLSI VET01-A4), strain MH 6357. The note with it: Mannheimia haemolytica strain MH 6357, broth-microdilution; unit assumed. As to the method:
(§1) For example, representative compounds were tested against ***, Mannheimia haemolytica and Pasteurella multocida, using the conventional broth-dilution assay.
(§2) The Minimum inhibitory concentrations (MIC) of compounds according to the invention for a number of veterinary bacterial pathogens were determined by the broth-microdilution method according to CLSI document VET01-A4.
(§3) Microdilution trays containing a doubling dilution series of the test compound were used for the tests. The MIC results were interpreted according to the CLSI documents VET01-S3. The lowest concentration of compound at which no visible growth (i.e. no turbidity) detected by the unaided eye was recorded as the MIC.

For test [2], the system named is Mannheimia haemolytica MH 6374 (ATCC 33396, reference strain). The test can be described thus: MIC, broth-microdilution (CLSI VET01-A4), strain MH 6374. The conditions noted are these: Mannheimia haemolytica strain MH 6374, broth-microdilution; unit assumed. Here is the method:
as §1, §2, §3
A general note: Broth dilution looks for growth in wells or tubes with falling amounts of substance.

Test [3] concerns Mannheimia haemolytica MH 10720 (154, BRD field isolate). Briefly: MIC, broth-microdilution (CLSI VET01-A4), strain MH 10720. The note with it: Mannheimia haemolytica strain MH 10720, broth-microdilution; unit assumed. Here is the method: as §1, §2, §3
Test [4] deals with Mannheimia haemolytica MH 12587 (1071, BRD field isolate, macrolide-resistance: erm+, E+). The test can be described thus: MIC, broth-microdilution (CLSI VET01-A4), strain MH 12587. The note with it: Mannheimia haemolytica strain MH 12587, broth-microdilution; unit assumed. Here is the method: as §1, §2, §3
In test [5] the test system is Mannheimia haemolytica MH 13065 (XB0446-6003.9, BRD field isolate). Briefly: MIC, broth-microdilution (CLSI VET01-A4), strain MH 13065. The note with it: Mannheimia haemolytica strain MH 13065, broth-microdilution; unit assumed. As to the method: as §1, §2, §3
In test [6] the test system is Mannheimia haemolytica MH 13093 (XB0472-6014.1, BRD field isolate). The test can be described thus: MIC, broth-microdilution (CLSI VET01-A4), strain MH 13093. The conditions noted are these: Mannheimia haemolytica strain MH 13093, broth-microdilution; unit assumed. Here is the method: as §1, §2, §3
The test system of test [7] is Pasteurella multocida PM 6267 (P 2225 (L386), reference strain, mouse infection strain). Briefly: MIC, broth-microdilution (CLSI VET01-A4), strain PM 6267. The note with it: Pasteurella multocida strain PM 6267, broth-microdilution; unit assumed. As to the method: as §1, §2, §3
For test [8], the system named is Pasteurella multocida PM 10775 (080130003051, BRD field isolate). Briefly: MIC, broth-microdilution (CLSI VET01-A4), strain PM 10775. The note with it: Pasteurella multocida strain PM 10775, broth-microdilution; unit assumed. Here is the method: as §1, §2, §3
The subject of test [9] is Pasteurella multocida PM 12080 (IV102277-0093, BRD field isolate). The test can be described thus: MIC, broth-microdilution (CLSI VET01-A4), strain PM 12080. The note with it: Pasteurella multocida strain PM 12080, broth-microdilution; unit assumed. Here is the method: as §1, §2, §3

In test [1], `O=C(N[C@@H](CO)C(=O)NO)c1ccc(C#Cc2ccc(CN3CCN(c4ccccc4)CC3)cc2)cc1` [Compound 81] came in with an MIC MH 6357 of 3.1 µg/mL (≈ 6.22 µM). In [2], the MIC MH 6374 was 3.1 µg/mL (≈ 6.22 µM). Besides, the MIC MH 10720 in test [3] came to 0.8 µg/mL (≈ 1.6 µM). This compound also registered an MIC MH 12587 in [4] of 25 µg/mL (≈ 50.1 µM). The same compound showed an MIC MH 13065 in test [5] of 3.1 µg/mL (≈ 6.22 µM). This compound also registered an MIC MH 13093 in [6] of 6.3 µg/mL (≈ 12.6 µM). For the same compound, the MIC PM 6267 in [7] is at most 0.1 µg/mL. The compound further yielded an MIC PM 10775 in test [8] of at most 0.1 µg/mL. Also, the MIC PM 12080 in test [9] turned out to be 0.8 µg/mL (≈ 1.6 µM).

In turn, `O=C(N[C@@H](CO)C(=O)NO)c1ccc(C#Cc2ccc(CN3CCN(c4ccccn4)CC3)cc2)cc1` [Compound 82] showed an MIC MH 6357 in test [1] of 1.6 µg/mL (≈ 3.2 µM). Further, the MIC MH 6374 in test [2] was found to be 0.8 µg/mL (≈ 1.6 µM). The compound further returned an MIC MH 10720 in [3] of 0.4 µg/mL (≈ 0.801 µM). The MIC MH 12587 in test [4] is 3.1 µg/mL (≈ 6.21 µM). Besides, the MIC MH 13065 in test [5] was determined as 6.3 µg/mL (≈ 12.6 µM). Moreover, in test [6], the MIC MH 13093 stood at 3.1 µg/mL (≈ 6.21 µM). In test [7], this compound showed an MIC PM 6267 of at most 0.1 µg/mL. The same compound came in with an MIC PM 10775 in [8] of at most 0.1 µg/mL. Also, in test [9], the MIC PM 12080 stood at 0.8 µg/mL (≈ 1.6 µM).

Compound `O=C(N[C@@H](CO)C(=O)NO)c1ccc(C#Cc2ccc(CN3CCc4ccccc4C3)cc2)cc1` [Compound 83] came in with an MIC MH 6357 in test [1] of 25 µg/mL (≈ 53.2 µM). Further, the MIC MH 6374 in test [2] turned out to be 0.8 µg/mL (≈ 1.7 µM). Besides, the MIC MH 10720 in [3] was determined as 0.4 µg/mL (≈ 0.852 µM). Moreover, the MIC MH 12587 in test [4] was determined as 1.6 µg/mL (≈ 3.41 µM). In test [5], this compound registered an MIC MH 13065 of 0.8 µg/mL (≈ 1.7 µM). This compound gave an MIC MH 13093 in test [6] of 1.6 µg/mL (≈ 3.41 µM). Also, in [7], the MIC PM 6267 is at most 0.1 µg/mL. The same compound had an MIC PM 10775 in test [8] of at most 0.1 µg/mL. In addition, the MIC PM 12080 in [9] was 0.8 µg/mL (≈ 1.7 µM).

On to `COc1cc2c(cc1OC)CN(Cc1ccc(C#Cc3ccc(C(=O)N[C@@H](CO)C(=O)NO)cc3)cc1)CC2` [Compound 84], for which, in test [1], the MIC MH 6357 worked out at 3.1 µg/mL (≈ 5.85 µM). The MIC MH 6374 in [2] was determined as 3.1 µg/mL (≈ 5.85 µM). Besides, in [3], the MIC MH 10720 was 0.8 µg/mL (≈ 1.51 µM). In [4], this compound displayed an MIC MH 12587 of 3.1 µg/mL (≈ 5.85 µM). In test [5], this compound yielded an MIC MH 13065 of 3.1 µg/mL (≈ 5.85 µM). Besides, the MIC MH 13093 in test [6] turned out to be 3.1 µg/mL (≈ 5.85 µM). In [7], this compound showed an MIC PM 6267 of at most 0.1 µg/mL. Further, the MIC PM 10775 in test [8] is at most 0.1 µg/mL. This compound registered an MIC PM 12080 in test [9] of 0.4 µg/mL (≈ 0.755 µM).

With `O=C(N[C@@H](CO)C(=O)NO)c1ccc(C#Cc2ccc(CNCc3ccccc3)cc2)cc1` [Compound 85], in test [1], the MIC MH 6357 was 3.1 µg/mL (≈ 6.99 µM). The MIC MH 6374 in test [2] stood at 0.8 µg/mL (≈ 1.8 µM). Besides, in test [3], the MIC MH 10720 is 1.6 µg/mL (≈ 3.61 µM). The MIC MH 12587 in test [4] is 3.1 µg/mL (≈ 6.99 µM). For the same compound, the MIC MH 13065 in [5] came out at 1.6 µg/mL (≈ 3.61 µM). For the same compound, the MIC MH 13093 in test [6] is 3.1 µg/mL (≈ 6.99 µM). For the same compound, the MIC PM 6267 in [7] is at most 0.1 µg/mL. The compound also came in with an MIC PM 10775 in [8] of at most 0.1 µg/mL. The compound further registered an MIC PM 12080 in test [9] of 0.8 µg/mL (≈ 1.8 µM).

In test [1], `CN(Cc1ccccc1)Cc1ccc(C#Cc2ccc(C(=O)N[C@@H](CO)C(=O)NO)cc2)cc1` [Compound 86] displayed an MIC MH 6357 of 1.6 µg/mL (≈ 3.5 µM). The compound also showed an MIC MH 6374 in test [2] of 0.8 µg/mL (≈ 1.75 µM). In test [3], this compound displayed an MIC MH 10720 of 0.4 µg/mL (≈ 0.874 µM). The MIC MH 12587 in test [4] came out at 3.1 µg/mL (≈ 6.78 µM). Also, in test [5], the MIC MH 13065 came out at 1.6 µg/mL (≈ 3.5 µM). This compound also came in with an MIC MH 13093 in [6] of 3.1 µg/mL (≈ 6.78 µM). The compound further came in with an MIC PM 6267 in test [7] of at most 0.1 µg/mL. In test [8], this compound returned an MIC PM 10775 of at most 0.1 µg/mL. In [9], this compound displayed an MIC PM 12080 of 0.8 µg/mL (≈ 1.75 µM).

In test [1], `O=C(N[C@@H](CO)C(=O)NO)c1ccc(C#Cc2ccc(CNCc3ccc(Cl)cc3)cc2)cc1` [Compound 87] registered an MIC MH 6357 of 3.1 µg/mL (≈ 6.49 µM). The same compound yielded an MIC MH 6374 in [2] of 0.8 µg/mL (≈ 1.67 µM). For the same compound, the MIC MH 10720 in [3] amounted to 1.6 µg/mL (≈ 3.35 µM). The compound also returned an MIC MH 12587 in test [4] of 6.3 µg/mL (≈ 13.2 µM). Moreover, the MIC MH 13065 in test [5] is 3.1 µg/mL (≈ 6.49 µM). In test [6], this compound registered an MIC MH 13093 of 3.1 µg/mL (≈ 6.49 µM). The compound further had an MIC PM 6267 in test [7] of 0.2 µg/mL (≈ 0.418 µM). The MIC PM 10775 in test [8] was at most 0.1 µg/mL. The same compound registered an MIC PM 12080 in test [9] of 1.6 µg/mL (≈ 3.35 µM).

The compound `COc1ccc(CNCc2ccc(C#Cc3ccc(C(=O)N[C@@H](CO)C(=O)NO)cc3)cc2)cc1` [Compound 88] returned an MIC MH 6357 in [1] of 6.3 µg/mL (≈ 13.3 µM). Further, the MIC MH 6374 in test [2] amounted to 1.6 µg/mL (≈ 3.38 µM). This compound displayed an MIC MH 10720 in test [3] of 1.6 µg/mL (≈ 3.38 µM). Further, in test [4], the MIC MH 12587 turned out to be 6.3 µg/mL (≈ 13.3 µM). The MIC MH 13065 in test [5] came out at 3.1 µg/mL (≈ 6.55 µM). The compound also yielded an MIC MH 13093 in test [6] of 12.5 µg/mL (≈ 26.4 µM). In [7], this compound yielded an MIC PM 6267 of 0.2 µg/mL (≈ 0.422 µM). The MIC PM 10775 in [8] was at most 0.1 µg/mL. The compound further yielded an MIC PM 12080 in test [9] of 1.6 µg/mL (≈ 3.38 µM).
